System: Ramos cells
Experiment: cytotoxicity in Ramos cells
Type: cell-based
Settings: Homo sapiens
Protocol: The compounds listed in Table 5 were tested for cytotoxicity in Ramos cells. The assay was conducted as described in K. M. Johnson et al. Chemistry & Biology 2005, 12, 485-496.

| Structure (SMILES) | EC50 |
| --- | --- |
| CN1C(=O)C(Cc2ccc3ccccc3c2)N=C(N2CCC(O)CC2)c2cc(Cl)ccc21 (stereo not drawn) [Compound V-1] | ≥ 25 µM |
| CN1C(=O)C(Cc2ccc3ccccc3c2)N=C(c2ccc(N)nc2)c2cc(Cl)ccc21 (stereo not drawn) [Compound V-2] | 5 to 25 µM |
| CN1C(=O)C(Cc2ccc3ccccc3c2)N=C(c2cnc(N)cn2)c2cc(Cl)ccc21 (stereo not drawn) [Compound V-3] | ≥ 25 µM |
| Nc1ccc(C2=NC(Cc3ccc4ccccc4c3)C(=O)Nc3ccc(Cl)cc32)cn1 (stereo not drawn) [Compound V-4] | 5 to 25 µM |
| CN1C(=O)C(Cc2ccc3ccccc3c2)N=C(N2CCC3(CC2)OCCO3)c2cc(Cl)ccc21 (stereo not drawn) [Compound V-5] | ≤ 5 µM |
| CN1C(=O)C(Cc2ccc3ccccc3c2)N=C(N2CCC(N)CC2)c2cc(Cl)ccc21 (stereo not drawn) [Compound V-6] | 5 to 25 µM |
| O=C1CCN(C2=NC(Cc3ccc4ccccc4c3)C(=O)Nc3ccc(Cl)cc32)CC1 (stereo not drawn) [Compound V-7] | 5 to 25 µM |
| COc1ccc(C2(O)CCN(C3=NC(Cc4ccc5ccccc5c4)C(=O)Nc4ccc(Cl)cc43)CC2)cc1 (stereo not drawn) [Compound V-8] | ≤ 5 µM |
| CN1C(=O)C(Cc2ccc3ccccc3c2)N=C(N2CCC(NC(=O)OC(C)(C)C)CC2)c2cc(Cl)ccc21 (stereo not drawn) [Compound V-9] | ≥ 25 µM |
| CN1C(=O)C(Cc2ccc3ccccc3c2)N=C(N2CCC(NC(=O)CN)CC2)c2cc(Cl)ccc21 (stereo not drawn) [Compound V-10] | ≤ 5 µM |
| CN1C(=O)C(Cc2ccc3ccccc3c2)N=C(c2ccc(N)cn2)c2cc(Cl)ccc21 (stereo not drawn) [Compound V-11] | ≤ 5 µM |
| CC(=O)NC1CCN(C2=NC(Cc3ccc4ccccc4c3)C(=O)N(C)c3ccc(Cl)cc32)CC1 (stereo not drawn) [Compound V-12] | 5 to 25 µM |
| CN1C(=O)C(Cc2ccc3ccccc3c2)N=C(N2CCC(NC(=O)c3ccccc3)CC2)c2cc(Cl)ccc21 (stereo not drawn) [Compound V-13] | ≥ 25 µM |
| CC(=O)OCC(=O)Nc1ccc(C2=NC(Cc3ccc4ccccc4c3)C(=O)N(C)c3ccc(Cl)cc32)cn1 (stereo not drawn) [Compound V-14] | ≤ 5 µM |
| CN1C(=O)C(Cc2ccc3ccccc3c2)N=C(c2ccc(NC(=O)CO)nc2)c2cc(Cl)ccc21 (stereo not drawn) [Compound V-15] | 5 to 25 µM |
| CN1C(=O)C(Cc2ccc3ccccc3c2)N=C(c2csc(CO)n2)c2cc(Cl)ccc21 (stereo not drawn) [Compound V-16] | ≤ 5 µM |
| CC(=O)Nc1ccc(C2=NC(Cc3ccccc3Cl)C(=O)Nc3ccc(Cl)cc32)cn1 (stereo not drawn) [Compound V-17] | 5 to 25 µM |
| Nc1ccc(C2=NC(Cc3ccccc3Cl)C(=O)Nc3ccc(Cl)cc32)cn1 (stereo not drawn) [Compound V-18] | 5 to 25 µM |
| O=C1Nc2ccc(Cl)cc2C(c2ccncc2)=NC1Cc1ccccc1Cl (stereo not drawn) [Compound V-19] | 5 to 25 µM |
| Nc1ncc(C2=NC(Cc3ccccc3Cl)C(=O)Nc3ccc(Cl)cc32)cn1 (stereo not drawn) [Compound V-20] | 5 to 25 µM |

| Structure (SMILES) | EC50 |
| --- | --- |
| CCc1ccc(CC2N=C(c3cnc(N)nc3)c3cc(Cl)ccc3NC2=O)cc1CC (stereo not drawn) [Compound V-21] | 5 to 25 µM |
| Nc1cncc(C2=NC(Cc3ccccc3Cl)C(=O)Nc3ccc(Cl)cc32)c1 (stereo not drawn) [Compound V-22] | ≥ 25 µM |
| O=C1Nc2ccc(Cl)cc2C(c2cnc3[nH]c(=O)[nH]c3c2)=NC1Cc1ccccc1Cl (stereo not drawn) [Compound V-24] | ≤ 5 µM |
| O=C1Nc2ccc(Cl)cc2C(c2ccnc(N3CCNCC3)c2)=NC1Cc1ccccc1Cl (stereo not drawn) [Compound V-25] | 5 to 25 µM |
| CN1CCN(c2ccc(C3=NC(Cc4ccccc4Cl)C(=O)Nc4ccc(Cl)cc43)cn2)CC1 (stereo not drawn) [Compound V-26] | ≤ 5 µM |
| O=C1Nc2ccc(Cl)cc2C(c2ccc(N3CCC(O)CC3)nc2)=NC1Cc1ccccc1Cl (stereo not drawn) [Compound V-27] | ≤ 5 µM |
| O=C1Nc2ccc(Cl)cc2C(c2ccc(N3CCOCC3)nc2)=NC1Cc1ccccc1Cl (stereo not drawn) [Compound V-28] | ≤ 5 µM |
| O=C1Nc2ccc(Cl)cc2C(c2ccc(N3CCC(CO)CC3)nc2)=NC1Cc1ccccc1Cl (stereo not drawn) [Compound V-29] | ≤ 5 µM |
| CC(=O)N1CCN(c2ccc(C3=NC(Cc4ccccc4Cl)C(=O)Nc4ccc(Cl)cc43)cn2)CC1 (stereo not drawn) [Compound V-30] | ≤ 5 µM |
| O=C1Nc2ccc(Cl)cc2C(c2ccc(N3CCCC3)nc2)=NC1Cc1ccccc1Cl (stereo not drawn) [Compound V-31] | ≤ 5 µM |
| O=C1Nc2ccc(Cl)cc2C(c2ccc(N3CC[C@@H](O)C3)nc2)=NC1Cc1ccccc1Cl (stereo partly drawn) [Compound V-32] | 5 to 25 µM |
| COCCNc1ccc(C2=NC(Cc3ccccc3Cl)C(=O)Nc3ccc(Cl)cc32)cn1 (stereo not drawn) [Compound V-33] | 5 to 25 µM |
| COCCNc1ccc(C2=N[C@@H](Cc3ccccc3Cl)C(=O)Nc3ccc(Cl)cc32)cn1 [Compound V-34] | 5 to 25 µM |
| O=C1Nc2ccc(Cl)cc2C(c2cnc3[nH]c(=O)[nH]c3c2)=NC1CCc1ccccc1Cl (stereo not drawn) [Compound V-35] | 5 to 25 µM |
| Nc1ccc(C2=NC(Cc3ccccc3Cl)C(=O)N(C3CC3)c3ccc(Cl)cc32)cn1 (stereo not drawn) [Compound V-36] | 5 to 25 µM |
| O=C1Nc2ccc(Cl)cc2C(c2cn[nH]c2)=NC1Cc1ccccc1Cl (stereo not drawn) [Compound V-37] | 5 to 25 µM |
| O=C1Nc2ccc(Cl)cc2C(c2cn[nH]c2)=NC1Cc1ccc2ccccc2c1 (stereo not drawn) [Compound V-39] | ≤ 5 µM |
| Cc1n[nH]cc1C1=NC(Cc2ccccc2Cl)C(=O)Nc2ccc(Cl)cc21 (stereo not drawn) [Compound V-40] | 5 to 25 µM |
| Cc1n[nH]c(C)c1C1=NC(Cc2ccccc2Cl)C(=O)Nc2ccc(Cl)cc21 (stereo not drawn) [Compound V-41] | 5 to 25 µM |
